A word on the solubility: it is the dissolved amount per volume that the medium holds. What is called CC50 is the concentration that lowers cell viability or growth by half. Usually EC50 stands for the concentration at which the effect is half-maximal.

This is an account of results in ChEMBL document CHEMBL4330122, “Modified ribavirin analogues as antiviral agents against Junín virus” (Bioorg Med Chem Lett, 2019).

The nature of data set [1]: Solubility of the compound in water. In kind it is physicochemical.
A short description of data set [2]: Cytotoxicity against human A549 cells assessed as reduction in cell viability after 48 hrs by MTT assay. Type of data set: cell-based.
In data set [3] the test system is Junin virus. Type of data set: functional, organism-based. The following applies: Mammarenavirus juninense, IV4454, A549, 48 h.
Data set [4] in a line: Cytotoxicity against African green monkey Vero cells assessed as reduction in cell viability after 48 hrs by MTT assay. Particulars: chlorocebus sabaeus. Type of data set: cell-based. On the technique in general: Tetrazolium assays rely on reduction of a dye to a coloured formazan, in cell work by metabolically active cells.
For data set [5], the system named is Junin virus. Type of data set: functional, organism-based. The following applies: Mammarenavirus juninense, IV4454, Vero, 48 h.
The nature of data set [6]: in vitro. Particulars: human, A549 cells.
A short description of data set [7]: in vitro. Particulars: monkey, Vero cells.

Regarding `OC1O[C@H](COCc2cn(CC(Cn3cc(COC[C@H]4OC(O)[C@H](O)[C@@H](O)[C@H]4O)nn3)(Cn3cc(COC[C@H]4OC(O)[C@H](O)[C@@H](O)[C@H]4O)nn3)Cn3cc(COC[C@H]4OC(O)[C@H](O)[C@@H](O)[C@H]4O)nn3)nn2)[C@H](O)[C@H](O)[C@H]1O` (stereo partly specified), the solubility in data set [1] is > 100 mg/mL. In addition, the 50% cytotoxic concentration (CC50) at 48 h in data set [2] and in data set [4] was > 1 mM in each case. The results for the concentration giving a half-maximal response (EC50) with Junin virus [3] and in the data set on Junin virus [5] were 314 µM and 371 µM, respectively. Besides, the selectivity ratio is > 3.2 in “in vitro [6]” and > 2.7 in the data set “in vitro [7]”.
Take `CC1(C)O[C@@H]2[C@H](O1)[C@@H](Cn1cc(COC[C@H]3OC(O)[C@H](O)[C@@H](O)[C@H]3O)nn1)O[C@H]2n1cc(COCC(COCc2cn([C@@H]3O[C@H](Cn4cc(COC[C@H]5OC(O)[C@H](O)[C@@H](O)[C@H]5O)nn4)[C@H]4OC(C)(C)O[C@H]43)nn2)(COCc2cn([C@@H]3O[C@H](Cn4cc(COC[C@H]5OC(O)[C@H](O)[C@@H](O)[C@H]5O)nn4)[C@H]4OC(C)(C)O[C@H]43)nn2)COCc2cn([C@@H]3O[C@H](Cn4cc(COC[C@H]5OC(O)[C@H](O)[C@@H](O)[C@H]5O)nn4)[C@H]4OC(C)(C)O[C@H]43)nn2)nn1` (stereo partly specified): the solubility in data set [1] was > 100 mg/mL. Further, the half-maximal cytotoxic concentration (CC50) at 48 h in data set [2] and in data set [4] was > 1 mM each time. Further, the concentration for a half-maximal effect (EC50) is 119 µM with Junin virus [3] and 117 µM with Junin virus [5]. In addition, the figures for the selectivity ratio in “in vitro [6]” and in “in vitro [7]” were > 8.4 and > 8.6, respectively.
For `CCCCn1cc(CO[C@@H]2O[C@H](Cn3cc(COC[C@H]4OC(O)[C@H](O)[C@@H](O)[C@H]4O)nn3)[C@H]3OC(C)(C)O[C@@H]23)nn1` (stereo partly specified), in data set [1], the solubility was > 100 mg/mL. The CC50 at 48 h in data set [2] and in data set [4] was > 1 mM throughout. The EC50 turned out to be 20.6 µM in the data set with Junin virus [3] and 22.1 µM in the data set on Junin virus [5]. The results for the selectivity ratio in “in vitro [6]” and in the data set “in vitro [7]” were > 48.5 and > 45.2, respectively.
Take `CCCCn1cc(CO[C@@H]2O[C@H](Cn3cc(COC[C@@H](O)[C@H](O)[C@H](O)[C@@H](O)CO)nn3)[C@H]3OC(C)(C)O[C@@H]23)nn1`: the solubility in data set [1] was > 100 mg/mL. Besides, the CC50 at 48 h in data set [2] and in data set [4] was > 1 mM throughout. For the same compound, the EC50 with Junin virus [3] turned out to be 389 µM; in the data set on Junin virus [5], 209 µM. The results for the selectivity ratio in the data set “in vitro [6]” and in “in vitro [7]” were > 2.6 and > 4.8, respectively.
Consider `CC1(C)O[C@H]2[C@H](OCc3cn(CC(Cn4cc(CO[C@@H]5O[C@H](Cn6cc(COC[C@@H](O)[C@H](O)[C@H](O)[C@@H](O)CO)nn6)[C@H]6OC(C)(C)O[C@@H]56)nn4)(Cn4cc(CO[C@@H]5O[C@H](Cn6cc(COC[C@H](O)[C@@H](O)[C@@H](O)[C@H](O)CO)nn6)[C@H]6OC(C)(C)O[C@@H]56)nn4)Cn4cc(CO[C@@H]5O[C@H](Cn6cc(COC[C@H](O)[C@@H](O)[C@@H](O)[C@H](O)CO)nn6)[C@H]6OC(C)(C)O[C@@H]56)nn4)nn3)O[C@H](Cn3cc(COC[C@@H](O)[C@H](O)[C@H](O)[C@@H](O)CO)nn3)[C@H]2O1`, for which the solubility in data set [1] is > 100 mg/mL. The cytotoxic concentration (CC50) at 48 h in data set [2] and in data set [4] was > 1 mM throughout. Also, the EC50 is 314 µM with Junin virus [3] and > 500 µM in the data set with Junin virus [5]. Also, in the data set “in vitro [6]”, the selectivity ratio is > 3.2.
Turning to `CCCCn1cc(COC[C@H]2OC(O)[C@H](O)[C@@H](O)[C@H]2O)nn1` (stereo partly specified), the solubility in data set [1] is > 100 mg/mL. The CC50 at 48 h in data set [2] and in data set [4] was > 1 mM in each case. Besides, the 50% effective concentration (EC50) in the data set with Junin virus [3] turned out to be 113 µM; in the data set on Junin virus [5], 371 µM. Also, the results for the selectivity ratio in “in vitro [6]” and in “in vitro [7]” were > 8.9 and > 2.7, respectively.
